15 molecules from patent US11473089B2, “Aptamer for ADAMTS5 and use for aptamer for ADAMTS5” (RIBOMIC INC., priority 2017, dated 2022) can be followed below.

This series concerns the target T1, ADAMTS5 (Homo sapiens, UniProt Q9UNA0).
T1 construct: purchased R&D systems
T1 sequence (Q9UNA0 262-930): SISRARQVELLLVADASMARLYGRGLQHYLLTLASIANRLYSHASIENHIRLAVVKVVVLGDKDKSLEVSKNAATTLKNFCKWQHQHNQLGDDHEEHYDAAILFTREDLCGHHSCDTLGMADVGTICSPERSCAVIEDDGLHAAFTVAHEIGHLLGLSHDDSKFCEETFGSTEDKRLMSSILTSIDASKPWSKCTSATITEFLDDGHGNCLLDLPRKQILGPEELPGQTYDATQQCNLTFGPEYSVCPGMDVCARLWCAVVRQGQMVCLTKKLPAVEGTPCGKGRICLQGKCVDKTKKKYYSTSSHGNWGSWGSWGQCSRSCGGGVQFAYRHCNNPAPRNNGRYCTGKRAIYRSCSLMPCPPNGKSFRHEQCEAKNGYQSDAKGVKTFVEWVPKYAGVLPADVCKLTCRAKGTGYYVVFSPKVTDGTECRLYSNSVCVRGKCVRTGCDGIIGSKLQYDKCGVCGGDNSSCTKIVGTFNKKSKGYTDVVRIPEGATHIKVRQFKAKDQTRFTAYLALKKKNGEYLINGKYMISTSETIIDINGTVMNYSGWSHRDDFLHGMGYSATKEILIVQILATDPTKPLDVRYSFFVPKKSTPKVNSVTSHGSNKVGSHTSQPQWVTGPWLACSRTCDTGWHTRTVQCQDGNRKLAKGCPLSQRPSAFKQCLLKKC
Description: binding activity to ADAMTS5 by surface plasmon resonance (Biacore T100). Conditions: for binding activity: Table 10. The protocol: The binding activity of aptamers having the nucleotide sequences shown in SEQ ID NOs: 1 and 2 to ADAMTS5 was evaluated by the surface plasmon resonance method. Biacore T100 manufactured by GE Healthcare was used for the measurement. The SA chip was used as the sensor chip, which had streptavidin immobilized thereon. About 800 RU of a 16-nucleotide Poly dT with biotin at the 5′-terminal was bound on the chip. […] ADAMTS5 for analyte was prepared at 0.1 μM, and injected at a flow rate of 30 μL/min for 60 sec. As the running buffer, solution C was used. The solution C is a mixed solution of 300 mM sodium chloride, 5.4 mM potassium chloride, 1.8 mM calcium chloride, 0.8 mM magnesium chloride, 20 mM tris (pH 7.6), and 0.05% Tween20.
SEQ ID NO: 2 has a sequence with one base deletion from the continuous 4 G bases in the consensus sequence, and it was shown from the measurement results of the binding activity that the continuous 4 G bases in the consensus sequence are important for the activity of aptamers. Sensorgram showing the binding of an aptamer having the nucleotide sequence shown in SEQ ID NO: 1 to ADAMTS5 is presented in FIG. 2. In Table 1, “++” indicates those with the proportion of ADAMTS5 binding amount (RU value) to the amount of aptamer immobilized on the SA chip (RU value) of not less than 40%, “+” indicates those with the proportion of not less than 10% and less than 40%, and “−” indicates those with the proportion of less than 10%.
The binding activity and enzyme inhibitory activity of aptamers having nucleotide sequences shown in SEQ ID NOs: 16-25 to ADAMTS5 were measured. The binding activity was evaluated by the surface plasmon resonance method. For the measurement, a method similar to that in Example 1 was used. The enzyme inhibitory activity was measured by a method similar to that in Example 1. […] The negative control nucleic acid refers to the nucleic acid pool used in the first round of the SELEX method. The “++” indicates those with the proportion of ADAMTS5 binding amount (RU value) to the amount of aptamer immobilized on the SA chip (RU value) of not less than 40%, and “+” indicates those with the proportion of less than 40%. […] “n.d.” means not determined.
The binding activity of the nucleic acids shown in SEQ ID NOs: 30-45 to ADAMTS5 was measured. The binding activity was evaluated by the surface plasmon resonance method. In the Table, “++” indicates those with the proportion of ADAMTS5 binding amount (RU value) to the amount of aptamer immobilized on the SA chip (RU value) of not less than 40%, “+” indicates those with the proportion of not less than 10% and less than 40%, and “−” indicates those with the proportion of less than 10%.
(Surface plasmon resonance follows binding to a sensor surface in real time, without labels.)

Regarding “32 (GGGUAUUGGGGCCUCCACAGAAAAAUCUUGGACUAAACCAAUCUCGA; aptamer; 2'-fluoro at CU, RNA at AG, backbone not given here) [compound 32]”, the binding activity result is on record as “++ (proportion of ADAMTS5 binding amount (RU value) to the amount of aptamer immobilized on the SA chip (RU value) of not less than 40%)”.

On to “33 (GGGUAUUGGGGCCUCCACAGCCGAGGCUUGGACUAAACCAAUCUCGA; aptamer; 2'-fluoro at CU, RNA at AG, backbone not given here) [compound 33]”, for which the binding activity result is listed as “++ (proportion of ADAMTS5 binding amount (RU value) to the amount of aptamer immobilized on the SA chip (RU value) of not less than 40%)”.

Consider “34 (GGGUAUUGGGGCCUCCACAGAAAAAACUUGGACUAAACCAACUCGA; aptamer; 2'-fluoro at CU, RNA at AG, backbone not given here) [compound 34]”, for which the binding activity result is “++ (proportion of ADAMTS5 binding amount (RU value) to the amount of aptamer immobilized on the SA chip (RU value) of not less than 40%)”.

Consider “35 (GGGUAUUGGGGCCUCCACAGUAAGCACUUGGACUAAACCAGCUCGA; aptamer; 2'-fluoro at CU, RNA at AG, backbone not given here) [compound 35]”, for which the binding activity result is on record as “++ (proportion of ADAMTS5 binding amount (RU value) to the amount of aptamer immobilized on the SA chip (RU value) of not less than 40%)”.

Take “36 (GGGUAUUGGGGCCUCCACAGUUUAAACUUGGACUAAACCAACUCGA; aptamer; 2'-fluoro at CU, RNA at AG, backbone not given here) [compound 36]”: the binding activity result is “++ (proportion of ADAMTS5 binding amount (RU value) to the amount of aptamer immobilized on the SA chip (RU value) of not less than 40%)”.

In the case of “37 (GGGUAUUGGGGCCUCCACAGUAAAUUCUUGGACUAAACCAACUCGA; aptamer; 2'-fluoro at CU, RNA at AG, backbone not given here) [compound 37]”, the binding activity result is reported as “++ (proportion of ADAMTS5 binding amount (RU value) to the amount of aptamer immobilized on the SA chip (RU value) of not less than 40%)”.

As for “38 (GGGUAUUGGGGCCUCCACGCUAGAAGGCUGGACUAAACCAACUCGA; aptamer; 2'-fluoro at CU, RNA at AG, backbone not given here) [compound 38]”, the binding activity entry is listed as “++ (proportion of ADAMTS5 binding amount (RU value) to the amount of aptamer immobilized on the SA chip (RU value) of not less than 40%)”.

Consider “39 (GGGUAUUGGGGCCUCCACGUAACUAAACUGGACUAAACCAACUCGA; aptamer; 2'-fluoro at CU, RNA at AG, backbone not given here) [compound 39]”, for which the binding activity result was “++ (proportion of ADAMTS5 binding amount (RU value) to the amount of aptamer immobilized on the SA chip (RU value) of not less than 40%)”.

Take “40 (GGGUAUUGGGGCCUCCACGCAAUGGUGCUGGACUAAACCAACUCGA; aptamer; 2'-fluoro at CU, RNA at AG, backbone not given here) [compound 40]”: the binding activity result is “++ (proportion of ADAMTS5 binding amount (RU value) to the amount of aptamer immobilized on the SA chip (RU value) of not less than 40%)”.

Turning to “41 (GGGUAUUGGGGCCUCCACAUGGAUACAUUGGACUAAACCAACUCGA; aptamer; 2'-fluoro at CU, RNA at AG, backbone not given here) [compound 41]”, the binding activity entry is listed as “++ (proportion of ADAMTS5 binding amount (RU value) to the amount of aptamer immobilized on the SA chip (RU value) of not less than 40%)”.

As to “42 (GGGUAUUGGGGCCUCCACAGAUAAUUCUUGGACUAAACCAACUCGA; aptamer; 2'-fluoro at CU, RNA at AG, backbone not given here) [compound 42]”, the binding activity entry is “++ (proportion of ADAMTS5 binding amount (RU value) to the amount of aptamer immobilized on the SA chip (RU value) of not less than 40%)”.

With “43 (GGGUAUUGGGGCCUCCACAGAAAAUUCUUGGACUAAACCAACUCGA; aptamer; 2'-fluoro at CU, RNA at AG, backbone not given here) [compound 43]”, the binding activity entry is on record as “++ (proportion of ADAMTS5 binding amount (RU value) to the amount of aptamer immobilized on the SA chip (RU value) of not less than 40%)”.

For the molecule “44 (GGGUAUUGGGGCCUCCACAGAACUUUCUUGGACUAAACCAACUCGA; aptamer; 2'-fluoro at CU, RNA at AG, backbone not given here) [compound 44]”, the binding activity entry is recorded as “++ (proportion of ADAMTS5 binding amount (RU value) to the amount of aptamer immobilized on the SA chip (RU value) of not less than 40%)”.

With “45 (GGGUAUUGGGGCCUCCACAGAAAAGUCUUGGACUAAACCAACUCGA; aptamer; 2'-fluoro at CU, RNA at AG, backbone not given here) [compound 45]”, the binding activity result was “++ (proportion of ADAMTS5 binding amount (RU value) to the amount of aptamer immobilized on the SA chip (RU value) of not less than 40%)”.

B1: 2 (nucleic acid)
chain: GGGUACGACCGUCGUACGAUUGGGCCUCCACAGCUGCUCAGCUUGGACUAAACCAAUAAGAGACUAACGCCUAGCGUAC
modifications: 2'-fluoro at CU, RNA at AG, backbone not given here
Turning to B1, the “binding activity by Biacore” value (Table 1, 0.1 μM ADAMTS5 analyte, aptamer immobilized on SA chip) is recorded as “− (proportion of less than 10%)”. Further, the “binding to ADAMTS5 (in words)” value (surface plasmon resonance) is reported as “did not bind to ADAMTS5”.
